These compounds were tested against human APJ receptor (Homo sapiens (Human), UniProt P35414) (assay: biochemical). Settings: [35S]GTPγS binding, CHO membranes expressing human APJ receptor; read-out: Activity hAPJ SPA EC50 IP.
Type: biochemical
Protocol: The human APJ receptor was cloned by polymerase chain reaction and the gene encoding the receptor was subcloned in pFLAG-CMV™-3 expression vector (Sigma, Saint Louis, Mo. USA) in-house at Amgen. A GTPγS binding assay was performed on membranes prepared from CHO cells stably expressing human APJ receptor. The optimum experimental conditions for the concentrations of GDP, MgCl2, and NaCl in the assay buffer were initially determined. […] Incubation was at RT for 90 min and the microplate was read using a ViewLux™ ultra HTS Microplate Imager (PerkinElmer, Inc.).

Sequence of human APJ receptor (P35414 whole entry): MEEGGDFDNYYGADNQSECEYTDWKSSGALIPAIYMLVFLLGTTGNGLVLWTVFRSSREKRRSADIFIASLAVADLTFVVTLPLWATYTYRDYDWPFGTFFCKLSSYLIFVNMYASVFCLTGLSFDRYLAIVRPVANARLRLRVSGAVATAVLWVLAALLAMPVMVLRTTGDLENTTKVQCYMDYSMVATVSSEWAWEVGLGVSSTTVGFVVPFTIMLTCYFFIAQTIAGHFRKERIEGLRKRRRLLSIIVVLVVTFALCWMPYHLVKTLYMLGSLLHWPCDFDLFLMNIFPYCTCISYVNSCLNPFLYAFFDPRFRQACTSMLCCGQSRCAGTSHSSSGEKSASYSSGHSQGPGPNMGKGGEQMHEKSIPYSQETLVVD

Row | Structure (SMILES) | EC50
1 | COc1cccc(OC)c1-n1c(NS(=O)(=O)[C@@H](C)[C@H](C)c2ncc(C)cn2)nnc1-c1ccn(C)n1 [Example 201.0, (2S,3R)-N-(4-(2,6-dimethoxyphenyl)-5-(1-methyl-1H-pyrazol-3-yl)-4H-1,2,4-triazol-3-yl)-3-(5-methyl-2-pyrimidinyl)-2-butanesulfonamide] | 0.93 nM
2 | COc1cccc(OC)c1-n1c(NS(=O)(=O)[C@@H](C)[C@@H](OC(C)C)c2ncc(C)cn2)nnc1-c1noc(C)c1C [Example 517.0, (1S,2S)-N-(4-(2,6-dimethoxyphenyl)-5-(4,5-dimethylisoxazol-3-yl)-4H-1,2,4-triazol-3-yl)-1-isopropoxy-1-(5-methylpyrimidin-2-yl)propane-2-sulfonamide] | 3 nM
3 | COc1nc[nH]c(=O)c1-n1c(NS(=O)(=O)[C@@H](C)Cc2ncc(F)cn2)nnc1-c1ccn(C)n1 (racemic) [Example 7.0, (2R)-1-(5-fluoro-2-pyrimidinyl)-N-(4-(4-methoxy-6-oxo-1,6-dihydro-5-pyrimidinyl)-5-(1-methyl-1H-pyrazol-3-yl)-4H-1,2,4-triazol-3-yl)-2-propanesulfonamide and (2S)-1-(5-fluoro-2-pyrimidinyl)-N-(4-(4-methoxy-6-oxo-1,6-dihydro-5-pyrimidinyl)-5-(1-methyl-1H-pyrazol-3-yl)-4H-1,2,4-triazol-3-yl)-2-propanesulfonamide] | 51 nM
4 | COc1cccc(OC)c1-n1c(NS(=O)(=O)[C@@H](C)[C@H](C)c2ncc(Cl)cn2)nnc1-c1cnn2c1CCC2 [Example 445.0, (2S,3R)-3-(5-chloropyrimidin-2-yl)-N-(5-(5,6-dihydro-4H-pyrrolo[1,2-b]pyrazol-3-yl)-4-(2,6-dimethoxyphenyl)-4H-1,2,4-triazol-3-yl)butane-2-sulfonamide] | 0.089 nM
5 | COc1cccc(OC)c1-n1c(NS(=O)(=O)[C@@H](C)[C@H](OC)c2ncc(C)cn2)nnc1-c1ccon1 [Example 90.0, (1R,2S)-N-(4-(2,6-dimethoxyphenyl)-5-(isoxazol-3-yl)-4H-1,2,4-triazol-3-yl)-1-methoxy-1-(5-methylpyrimidin-2-yl)propane-2-sulfonamide] | 33 nM
6 | COc1cnc([C@@H](OC)[C@H](C)S(=O)(=O)Nc2nnc(-c3ccn(C)n3)n2-c2c(OC)cccc2OC)cn1 (single isomer, unassigned) [Example 309.0, (1R,2S)-N-(4-(2,6-dimethoxyphenyl)-5-(1-methyl-1H-pyrazol-3-yl)-4H-1,2,4-triazol-3-yl)-1-methoxy-1-(5-methoxy-2-pyrazinyl)-2-propanesulfonamide or (1S,2R)-N-(4-(2,6-dimethoxyphenyl)-5-(1-methyl-1H-pyrazol-3-yl)-4H-1,2,4-triazol-3-yl)-1-methoxy-1-(5-methoxy-2-pyrazinyl)-2-propanesulfonamide] | 34 nM
7 | COc1cccc(OC)c1-n1c(NS(=O)(=O)CC[C@@H](O)C2CCCC2)nnc1-c1cccs1 (mixture of isomers) [Example 362.0, (R)-3-Cyclopentyl-N-(4-(2,6-dimethoxyphenyl)-5-(thiophen-2-yl)-4H-1,2,4-triazol-3-yl)-3-hydroxypropane-1-sulfonamide and (S)-3-cyclopentyl-N-(4-(2,6-dimethoxyphenyl)-5-(thiophen-2-yl)-4H-1,2,4-triazol-3-yl)-3-hydroxypropane-1-sulfonamide] | 3 nM
8 | COc1cccc(OC)c1-n1c(NS(=O)(=O)[C@@H](C)[C@H](OC)c2ncc(C)cn2)nnc1-c1c(C)nc2ccccn12 [Example 410.0, (1R,25)-N-(4-(2,6-dimethoxyphenyl)-5-(2-methylimidazo[1,2-a]pyridin-3-yl)-4H-1,2,4-triazol-3-yl)-1-methoxy-1-(5-methylpyrimidin-2-yl)propane-2-sulfonamide] | 940 nM
9 | COc1cccc(OC)c1-n1c(NS(=O)(=O)CCN2C(=O)N(C)CC[C@@H]2C)nnc1-c1nc(C)cs1 [Example 13.0, N-(4-(2,6-dimethoxyphenyl)-5-(4-methyl-1,3-thiazol-2-yl)-4H-1,2,4-triazol-3-yl)-2-((6S)-3,6-dimethyl-2-oxotetrahydro-1(2H)-pyrimidinyl)ethanesulfonamide] | 2.9 nM

From patent US11046680B1, “Heteroaryl-substituted triazoles as APJ receptor agonists” (priority 2016, dated 2021)
